These results are taken from US20120157453A1, “RAF INHIBITOR COMPOUNDS AND METHODS OF USE THEREOF” (GENENTECH, INC., priority 2009, published 2012).

In assay [1] the target is T1, V600E full-length B-Raf (Homo sapiens, UniProt P15056, V600E).
T1 construct: 1 μM FSBA-MEK and 20 nM V600E full-length B-Raf; made in house; host or cells: Sf9 insect cells (baculovirus)
As to the kind of experiment: B-Raf IC50 assay (incorporation of 33P phosphate into FSBA-modified MEK). In kind it is biochemical. From the text:
Determining the activity of Raf in the sample is possible by a number of direct and indirect detection methods (US 2004/0082014). Activity of human recombinant B-Raf protein may be assessed in vitro by assay of the incorporation of radio labeled phosphate to recombinant MAP kinase (MEK), a known physiologic substrate of B-Raf, according to US 2004/0127496 and WO 03/022840. The activity/inhibition of V600E full-length B-Raf was estimated by measuring the incorporation of radio labeled phosphate from [γ-^33P]ATP into FSBA-modified wild-type MEK (see Example A).
Activity of human recombinant B-Raf protein may be assessed in vitro by assay of the incorporation of radio labeled phosphate to recombinant MAP kinase (MEK), a known physiologic substrate of B-Raf, according to US 2004/0127496 and WO 03/022840. Catalytically active human recombinant B-Raf protein is obtained by purification from sf9 insect cells infected with a human B-Raf recombinant baculovirus expression vector.
The activity/inhibition of V600E full-length B-Raf was estimated by measuring the incorporation of radio labeled phosphate from [γ-^33P]ATP into FSBA-modified wild-type MEK. The 30-μL assay mixtures contained 25 mM Na Pipes, pH 7.2, 100 mM KCl, 10 mM MgCl2, 5 mM β-glycerophosphate, 100 μM Na Vanadate, 4 μM ATP, 500 nCi [γ-^33P]ATP, 1 μM FSBA-MEK and 20 nM V600E full-length B-Raf. Incubations were carried out at 22° C. in a Costar 3365 plate (Corning). Prior to the assay, the B-Raf and FSBA-MEK were preincubated together in assay buffer at 1.5× (20 μL of 30 nM and 1.5 μM, respectively) for 15 minutes, and the assay was initiated by the addition of 10 μL of 10 μM ATP. Following the 60-minute incubation, the assay mixtures were quenched by the addition of 100 μL of 25% TCA, the plate was mixed on a rotary shaker for 1 minute, and the product was captured on a Perkin-Elmer GF/B filter plate using a Tomtec Mach III Harvester. After sealing the bottom of the plate, 35 μL of Bio-Safe II (Research Products International) scintillation cocktail were added to each well and the plate was top-sealed and counted in a Topcount NXT (Packard).

Assay [2] concerns basal ERK1/2 phosphorylation in Malme-3M cells. As to the kind of experiment: Cellular ERK 1/2 phosphorylation assay. In kind it is cell-based. As to conditions: Homo sapiens, 1 h, pERK normalized to total ERK. The protocol:
Inhibition of basal ERK1/2 phosphorylation was determined by the following in vitro […], which comprises incubating cells with a compound of Formula II for 1 hour and quantifying the fluorescent pERK signal on fixed cells and normalizing to total ERK signal.
Materials and Methods: Malme-3M cells were obtained from ATCC and grown in RPMI-1640 supplemented with 10% fetal bovine serum. Cells were plated in 96-well plates at 24,000 cells/well and allowed to attach for 16-20 hours at 37° C., 5% CO2. The media was removed, and DMSO-diluted compounds were added in RPMI-1640 at a final concentration of 1% DMSO. The cells were incubated with the compounds for 1 hour at 37° C., 5% CO2. The cells were washed with PBS and fixed in 3.7% formaldehyde in PBS for 15 minutes. This was followed by washing in PBS/0.05% Tween20 and permeabilizing in −20° C. 100% MeOH for 15 minutes. Cells were washed in PBS/0.05% Tween20 then blocked in Odyssey blocking buffer (LI-COR Biosciences) for 1 hour. Antibodies to phosphorylated ERK (1:400, Cell Signaling #9106, monoclonal) and total ERK (1:400, Santa Cruz Biotechnology #sc-94, polyclonal) were added to the cells and incubated 16-20 hours at 4° C. After washing with PBS/0.05% Tween20, the cells were incubated with fluorescently-labeled secondary antibodies (1:1000 goat anti-rabbit IgG-IRDye800, Rockland and 1:500 goat anti-mouse IgG-Alexa Fluor 680, Molecular Probes) for an additional hour. Cells were then washed and analyzed for fluorescence at both wavelengths using the Odyssey Infrared Imaging System (LI-COR Biosciences). Phosphorylated ERK signal was normalized to total ERK signal.

Where [3] appears, read: B-Raf V600E, bound less than 1 μM, read-out: IC50.
Setting [4] is: Example A assay, 4 μM ATP, 20 nM enzyme, 60-minute incubation, read-out: BRAF V600E IC50.

Read-outs that look alike come from different tables or passages of the source.

T1 sequence (P15056 whole entry V600E): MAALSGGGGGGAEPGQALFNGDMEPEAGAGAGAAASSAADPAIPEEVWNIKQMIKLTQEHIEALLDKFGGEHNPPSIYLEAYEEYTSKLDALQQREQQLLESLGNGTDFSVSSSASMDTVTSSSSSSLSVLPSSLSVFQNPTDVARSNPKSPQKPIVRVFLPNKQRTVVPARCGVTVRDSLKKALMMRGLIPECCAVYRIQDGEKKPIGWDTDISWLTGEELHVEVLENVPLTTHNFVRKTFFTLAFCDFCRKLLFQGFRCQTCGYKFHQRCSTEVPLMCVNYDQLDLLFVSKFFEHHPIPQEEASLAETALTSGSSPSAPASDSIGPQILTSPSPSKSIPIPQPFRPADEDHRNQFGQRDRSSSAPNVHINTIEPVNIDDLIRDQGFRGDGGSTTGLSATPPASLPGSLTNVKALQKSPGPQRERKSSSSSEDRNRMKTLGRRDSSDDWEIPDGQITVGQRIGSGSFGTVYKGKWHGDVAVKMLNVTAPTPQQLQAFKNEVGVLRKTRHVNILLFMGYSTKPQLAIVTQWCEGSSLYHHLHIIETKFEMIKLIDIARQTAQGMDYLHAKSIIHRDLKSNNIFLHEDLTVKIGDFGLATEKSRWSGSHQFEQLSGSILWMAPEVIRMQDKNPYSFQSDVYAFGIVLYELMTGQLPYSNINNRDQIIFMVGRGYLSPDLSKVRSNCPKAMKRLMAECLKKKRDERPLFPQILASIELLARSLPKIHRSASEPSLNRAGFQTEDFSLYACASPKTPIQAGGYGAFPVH

On to `CCCS(=O)(=O)Nc1ccc(F)c(NC(=O)N(C)c2ncnc3[nH]cnc23)c1F` [Example 1, Propane-1-sulfonic acid {2,4-difluoro-3-[3-methyl-3-(9H-purin-6-yl)-ureido]-phenyl}-amide], for which the 50% inhibitory concentration (IC50) in assay [1] (setting [3]) is < 1000 nM; in assay [1] (setting [4]), 23.9 nM; in assay [2] (bound less than 500 nM), < 500 nM; in assay [2] (bound less than 1 μM) it was < 1000 nM.
For the compound `CCCS(=O)(=O)Nc1ccc(F)c(NC(=O)Nc2ncnc3[nH]nc(OC)c23)c1Cl` [Example 2, Propane-1-sulfonic acid {2-chloro-4-fluoro-3-[3-(3-methoxy-1H-pyrazolo[3,4-d]pyrimidin-4-yl)-ureido]-phenyl}-amide], the IC50 in assay [1] (setting [3]) was < 1000 nM; in assay [1] (setting [4]), 1.3 nM; in assay [2] (bound less than 500 nM) it was < 500 nM; in assay [2] (bound less than 1 μM) it was < 1000 nM.
Turning to `CCS(=O)(=O)Nc1ccc(F)c(NC(=O)Nc2ncnc3[nH]nc(OC)c23)c1F` [Example 3, Ethanesulfonic acid {2,4-difluoro-3-[3-(3-methoxy-1H-pyrazolo[3,4-d]pyrimidin-4-yl)-ureido]-phenyl}-amide], the 50% inhibitory concentration (IC50) in assay [1] (setting [3]) was < 1000 nM; in assay [1] (setting [4]), 3.4 nM; in assay [2] it was 13.5 nM; in assay [2] (bound less than 500 nM), < 500 nM; in assay [2] (bound less than 1 μM) it was < 1000 nM.
For the compound `CCS(=O)(=O)Nc1ccc(Cl)c(NC(=O)Nc2ncnc3[nH]nc(OC)c23)c1F` [Example 4, Ethanesulfonic acid {4-chloro-2-fluoro-3-[3-(3-methoxy-1H-pyrazolo[3,4-d]pyrimidin-4-yl)-ureido]-phenyl}-amide], the IC50 in assay [1] (setting [3]) was < 1000 nM; in assay [1] (setting [4]), 1.9 nM; in assay [2] (bound less than 500 nM), < 500 nM; in assay [2] (bound less than 1 μM), < 1000 nM.
Consider `CCS(=O)(=O)Nc1ccc(F)c(NC(=O)Nc2ncnc3[nH]nc(OC)c23)c1Cl` [Example 5, Ethanesulfonic acid {2-chloro-4-fluoro-3-[3-(3-methoxy-1H-pyrazolo[3,4-d]pyrimidin-4-yl)-ureido]-phenyl}-amide], for which the IC50 in assay [1] (setting [3]) was < 1000 nM; in assay [1] (setting [4]) it was 3.9 nM; in assay [2], 47.9 nM; in assay [2] (bound less than 500 nM), < 500 nM; in assay [2] (bound less than 1 μM) it was < 1000 nM.
In the case of `CCCS(=O)(=O)Nc1ccc(F)c(NC(=O)N(C)c2ncnc3[nH]ccc23)c1F` [Example 6, Propane-1-sulfonic acid {2,4-difluoro-3-[3-methyl-3-(7H-pyrrolo[2,3-d]pyrimidin-4-yl)-ureido]-phenyl}-amide], the IC50 in assay [1] (setting [3]) was < 1000 nM; in assay [1] (setting [4]) it was 57 nM.
As for `CCCS(=O)(=O)Nc1ccc(F)c(NC(=O)Nc2ncnc3[nH]nc(I)c23)c1F` [Example 7, Propane-1-sulfonic acid {2,4-difluoro-3-[3-(3-iodo-1H-pyrazolo[3,4-d]pyrimidin-4-yl)-ureido]-phenyl}-amide], the IC50 in assay [1] (setting [3]) is < 1000 nM; in assay [1] (setting [4]), 3.8 nM; in assay [2] (bound less than 1 μM), < 1000 nM.
In the case of `CCCS(=O)(=O)Nc1ccc(F)c(NC(=O)Nc2ncnc3[nH]nc(OC)c23)c1OC` [Example 8, Propane-1-sulfonic acid {4-fluoro-2-methoxy-3-[3-(3-methoxy-1H-pyrazolo[3,4-d]pyrimidin-4-yl)-ureido]-phenyl}-amide], the figures for the IC50 in assay [1] (setting [3]), in assay [1] (setting [4]) and in assay [2] (bound less than 1 μM) were < 1000 nM, 192 nM and < 1000 nM, respectively.
For `CCCS(=O)(=O)Nc1ccc(F)c(NC(=O)Nc2ncnc3[nH]nc(OCC)c23)c1F` [Example 9, N-(3-(3-(3-Ethoxy-1H-pyrazolo[3,4-d]pyrimidin-4-yl)ureido)-2,4-difluorophenyl)propane-1-sulfonamide], the IC50 in assay [1] (setting [3]) was < 1000 nM; in assay [1] (setting [4]), 0.9 nM; in assay [2] (bound less than 500 nM) it was < 500 nM; in assay [2] (bound less than 1 μM), < 1000 nM.
For the compound `CCCS(=O)(=O)Nc1ccc(F)c(NC(=O)Nc2ncnc3[nH]nc(OC)c23)c1F` [Example 10, Propane-1-sulfonic acid {2,4-difluoro-3-[3-(3-methoxy-1H-pyrazolo[3,4-d]pyrimidin-4-yl)-ureido]-phenyl}-amide], the IC50 in assay [1] (setting [3]) was < 1000 nM; in assay [1] (setting [4]), 1.4 nM; in assay [2] (bound less than 500 nM), < 500 nM; in assay [2] (bound less than 1 μM), < 1000 nM.
In the case of `CCCS(=O)(=O)Nc1ccc(F)c(NC(=O)Nc2ncnc3[nH]ncc23)c1F` [Example 11, Propane-1-sulfonic acid {2,4-difluoro-3-[3-(1H-pyrazolo[3,4-d]pyrimidin-4-yl)-ureido]-phenyl}-amide], the IC50 in assay [1] is 5.5 nM; in assay [1] (setting [3]) it was < 1000 nM; in assay [2] (bound less than 500 nM), < 500 nM; in assay [2] (bound less than 1 μM) it was < 1000 nM.
In the case of `CCCS(=O)(=O)Nc1ccc(F)c(NC(=O)Nc2ncnc3[nH]ccc23)c1F` [Example 12, Propane-1-sulfonic acid {2,4-difluoro-3-[3-(7H-pyrrolo[2,3-d]pyrimidin-4-yl)-ureido]-phenyl}-amide], the IC50 in assay [1] (setting [3]) was < 1000 nM; in assay [1] (setting [4]), 56.2 nM; in assay [2] (bound less than 500 nM), < 500 nM; in assay [2] (bound less than 1 μM), < 1000 nM.
`CCCS(=O)(=O)Nc1ccc(F)c(NC(=O)Nc2ncnc3[nH]cnc23)c1F` [Example 13, Propane-1-sulfonic acid {2,4-difluoro-3-[3-(9H-purin-6-yl)-ureido]-phenyl}-amide]: the half-inhibitory concentration (IC50) is < 1000 nM in assay [1] (setting [3]), 4.7 nM in assay [1] (setting [4]), < 500 nM in assay [2] (bound less than 500 nM) and < 1000 nM in assay [2] (bound less than 1 μM).
On to `CCCS(=O)(=O)Nc1ccc(F)c(NC(=O)Nc2ncnc3[nH]nnc23)c1F` [Example 14, Propane-1-sulfonic acid {2,4-difluoro-3-[3-(3H-[1,2,3]triazolo[4,5-d]pyrimidin-7-yl)-ureido]-phenyl}-amide], for which, in assay [1] (setting [4]), the IC50 was found to be 1960 nM.
`CCCS(=O)(=O)Nc1ccc(F)c(NC(=O)Nc2ncnc3[nH]nc(OCCCO)c23)c1F` [Example 15, Propane-1-sulfonic acid {2,4-difluoro-3-{3-[3-(3-hydroxy-propoxy)-1H-pyrazolo[3,4-d]pyrimidin-4-yl]-ureido}-phenyl)-amide]: the half-inhibitory concentration (IC50) in assay [1] (setting [3]) is < 1000 nM; in assay [1] (setting [4]), 428 nM.
Consider `CCCS(=O)(=O)Nc1ccc(Cl)c(NC(=O)Nc2ncnc3[nH]nc(OC)c23)c1F` [Example 16, Propane-1-sulfonic acid {4-chloro-2-fluoro-3-[3-(3-methoxy-1H-pyrazolo[3,4-d]pyrimidin-4-yl)-ureido]-phenyl}-amide], for which the IC50 in assay [1] (setting [3]) is < 1000 nM; in assay [1] (setting [4]), 0.6 nM; in assay [2] (bound less than 500 nM), < 500 nM; in assay [2] (bound less than 1 μM), < 1000 nM.
For the compound `CCCS(=O)(=O)Nc1ccc(F)c(NC(=O)Nc2ncnc3oc(C)c(C)c23)c1F` [Example 18, Propane-1-sulfonic acid {3-[3-(5,6-dimethyl-furo[2,3-d]pyrimidin-4-yl)-ureido]-2,4-difluoro-phenyl}-amide], the figures for the IC50 in assay [1] (setting [3]) and in assay [1] (setting [4]) were < 1000 nM and 431 nM, respectively.
Consider `CCCS(=O)(=O)Nc1ccc(F)c(NC(=O)Nc2ncnc3[nH]c(=S)[nH]c23)c1F` [Example 23, Propane-1-sulfonic acid {2,4-difluoro-3-[3-(8-thioxo-8,9-dihydro-7H-purin-6-yl)-ureido]-phenyl}-amide], for which the half-inhibitory concentration (IC50) is < 1000 nM in assay [1] (setting [3]) and 29.2 nM in assay [1] (setting [4]).

In general, IC50 refers to the point on the concentration scale where inhibition reaches its midpoint.
